In patent publication US20260297081A1, “COMPOUNDS AND METHODS OF TREATING CANCERS” (Cullgen Inc., priority 2023, published 2026) one finds inhibition and IC50 data, which are given here for twelve compounds.

Format in all cases: cell-based
One test addresses CDK4 (Homo sapiens, UniProt P11802+Q16531). The test is described as follows: CDK4 percentage degradation in Calu-1 cells (Table 6). Further details: Cells that express cyclin D1-3 and CDK4/6 proteins were treated with heterobifunctional compounds; endogenous in cells; host or cells: Calu-1. To be noted: 16 hours; for inhibition at 0.04 µM: 40 nM; for inhibition at 0.2 µM: 200 nM. The procedure, abridged:
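Percentage degradation of Cyclin D1 and CDK4 derived from densitometry of ECL Western blots on lysates of Calu-1 cells. Treatment was 16 h with compound at either 40 nM or 200 nM.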

The next test relates to T47D cells. The test is described as follows: Anti-proliferation (viability) of ER+ breast cancer T47D cells, 6 days (Table 7, FIG. 2B). The settings on record: Homo sapiens, 144 h; T47D cells, 6 days, 10-point serial dilution; read-out: GI IC50 in T47D. Here is the method: To evaluate anti-proliferation activities of heterobifunctional compounds, NSCLC Calu-1 or ER+ breast cancer T47D cells were treated with selected heterobifunctional compounds following a 10-point serial dilution for 3 or 6 days, respectively.
To verify that heterobifunctional compound-mediated degradation is dependent on the binding to CDK4-cyclin D complex, a negative control compound, CPD-143, which is derived from active heterobifunctional compound CPD-10 was designed. CPD-143 bears the same DDB1 ligand and linker as CPD-10 but with a modified warhead to impair the binding of the control compound to CDK4.

A further test concerns MCF7 cells. The test is described as follows: Anti-proliferation (viability) of MCF7 cells (Table 7, FIG. 2B). To be noted: Homo sapiens, MCF7, MCF7 cells, 3-6 days, 10-point serial dilution; read-out: GI IC50 in MCF-7.
The next test has as its system Calu-1 cells. The test is described as follows: Anti-proliferation (viability) of NSCLC Calu-1 cells, 3 days (Table 7, FIG. 2B). To be noted: Homo sapiens, 72 h; Calu-1 cells, 3 days, 10-point serial dilution; read-out: GI IC50 in Calu-1. The procedure, abridged: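 Heterobifunctional compounds are tested in 10-point serial dilutions on Calu-1 (3-day exposure) and T47D (6-day exposure) cells.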

Chain of CDK4 (P11802 2-303 limits assumed): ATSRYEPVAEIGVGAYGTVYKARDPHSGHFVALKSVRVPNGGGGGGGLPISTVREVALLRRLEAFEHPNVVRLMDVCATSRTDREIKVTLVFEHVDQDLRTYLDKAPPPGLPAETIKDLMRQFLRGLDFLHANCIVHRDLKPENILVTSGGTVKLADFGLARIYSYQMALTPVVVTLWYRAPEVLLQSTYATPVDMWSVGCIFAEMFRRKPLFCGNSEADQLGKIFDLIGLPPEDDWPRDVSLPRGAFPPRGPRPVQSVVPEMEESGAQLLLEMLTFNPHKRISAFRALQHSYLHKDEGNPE
Chain of CDK4 (P24385 whole entry partner): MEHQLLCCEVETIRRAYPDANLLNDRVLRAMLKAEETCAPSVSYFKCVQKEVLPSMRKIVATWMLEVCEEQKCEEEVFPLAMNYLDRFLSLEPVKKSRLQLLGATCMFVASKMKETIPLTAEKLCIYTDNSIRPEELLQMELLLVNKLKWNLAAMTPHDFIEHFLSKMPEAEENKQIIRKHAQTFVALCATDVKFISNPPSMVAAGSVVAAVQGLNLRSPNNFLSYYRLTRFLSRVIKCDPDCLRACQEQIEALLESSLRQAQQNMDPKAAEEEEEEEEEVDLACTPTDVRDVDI
Chain of CDK4 (Q16531 2-1140 limits assumed): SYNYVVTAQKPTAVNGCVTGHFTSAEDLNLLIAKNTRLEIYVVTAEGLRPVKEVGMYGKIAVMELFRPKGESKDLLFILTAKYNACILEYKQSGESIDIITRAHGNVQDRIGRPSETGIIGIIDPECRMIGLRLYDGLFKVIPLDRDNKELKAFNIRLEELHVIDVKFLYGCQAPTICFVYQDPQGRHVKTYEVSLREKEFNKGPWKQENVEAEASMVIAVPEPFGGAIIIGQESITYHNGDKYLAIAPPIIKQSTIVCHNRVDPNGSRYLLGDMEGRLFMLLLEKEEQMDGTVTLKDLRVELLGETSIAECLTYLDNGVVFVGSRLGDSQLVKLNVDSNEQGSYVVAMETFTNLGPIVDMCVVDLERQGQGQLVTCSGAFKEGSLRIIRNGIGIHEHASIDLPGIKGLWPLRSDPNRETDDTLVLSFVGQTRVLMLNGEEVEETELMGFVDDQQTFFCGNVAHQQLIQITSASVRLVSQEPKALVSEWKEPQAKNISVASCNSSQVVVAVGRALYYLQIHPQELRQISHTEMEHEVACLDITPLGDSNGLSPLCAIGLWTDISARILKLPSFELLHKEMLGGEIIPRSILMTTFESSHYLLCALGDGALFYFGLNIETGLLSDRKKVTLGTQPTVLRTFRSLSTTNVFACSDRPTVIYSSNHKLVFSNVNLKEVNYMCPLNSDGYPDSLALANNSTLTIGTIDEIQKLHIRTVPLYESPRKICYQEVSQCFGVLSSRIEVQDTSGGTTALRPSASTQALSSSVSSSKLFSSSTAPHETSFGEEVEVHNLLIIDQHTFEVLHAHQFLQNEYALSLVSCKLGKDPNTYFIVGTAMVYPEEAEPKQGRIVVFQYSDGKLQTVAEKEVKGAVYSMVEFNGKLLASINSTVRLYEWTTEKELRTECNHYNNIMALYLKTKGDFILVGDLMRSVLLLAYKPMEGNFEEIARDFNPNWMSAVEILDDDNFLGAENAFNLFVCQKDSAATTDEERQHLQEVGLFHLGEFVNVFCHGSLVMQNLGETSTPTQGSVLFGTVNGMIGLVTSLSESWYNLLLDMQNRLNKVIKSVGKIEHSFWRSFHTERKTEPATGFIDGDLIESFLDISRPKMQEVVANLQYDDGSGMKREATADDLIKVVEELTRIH

The compound `CNc1ccc(C(=O)Nc2ccc(N(C)C)nn2)c(NCCCCCNC(=O)CN2CCN(c3ccc(Nc4ncc5c(C)c(C(C)=O)c(=O)n(C6CCCC6)c5n4)nc3)CC2)n1` [CPD-5, 2-((5-(2-(4-(6-((6-acetyl-8-cyclopentyl-5-methyl-7-oxo-7,8-dihydropyrido[2,3-d]pyrimidin-2-yl)amino)pyridin-3-yl)piperazin-1-yl)acetamido)pentyl)amino)-N-(6-(dimethylamino)pyridazin-3-yl)-6-(methylamino)nicotinamide] displayed an inhibition at 0.04 µM on CDK4 of 50 to 80%. Further, the values for the IC50 in the test on T47D cells, in the test with MCF7 cells and with Calu-1 cells were ≤ 50 nM, < 50 nM and ≤ 10 nM, respectively.
Turning to `CC(=O)c1c(C)c2cnc(Nc3ccc(N4CCN(CC(=O)NCCCCCCCNc5nc(C)ccc5C(=O)Nc5ccc(N(C)C)nn5)CC4)cn3)nc2n(C2CCCC2)c1=O` [CPD-8, 2-((7-(2-(4-(6-((6-acetyl-8-cyclopentyl-5-methyl-7-oxo-7,8-dihydropyrido[2,3-d]pyrimidin-2-yl)amino)pyridin-3-yl)piperazin-1-yl)acetamido)heptyl)amino)-N-(6-(dimethylamino)pyridazin-3-yl)-6-methylnicotinamide], the inhibition at 0.04 µM on CDK4 was in the range of 50 to 80%. The inhibition at 0.2 µM against CDK4 was > 80%. Also, the figures for the IC50 in the test with T47D cells, in the test on MCF7 cells and in the test with Calu-1 cells were ≤ 50 nM, < 50 nM and ≤ 10 nM, respectively.
For `CNc1ccc(C(=O)Nc2ccc(OC)nn2)c(NCCCCCCCNC(=O)CN2CCN(c3ccc(Nc4ncc5c(C)c(C(C)=O)c(=O)n(C6CCCC6)c5n4)nc3)CC2)n1` [CPD-11, 2-((7-(2-(4-(6-((6-Acetyl-8-cyclopentyl-5-methyl-7-oxo-7,8-dihydropyrido[2,3-d]pyrimidin-2-yl)amino)pyridin-3-yl)piperazin-1-yl)acetamido)heptyl)amino)-N-(6-methoxypyridazin-3-yl)-6-(methylamino)nicotinamide] the same measures were 50 to 80%, > 80%, 50 to 100 nM, < 50 nM and 10 to 50 nM.
On CDK4, `CNc1ccc(C(=O)Nc2ccc(N(C)C)nn2)c(NCCCCCNC(=O)C(C)N2CCN(c3ccc(Nc4ncc5c(C)c(C(C)=O)c(=O)n(C6CCCC6)c5n4)nc3)CC2)n1` (stereo not shown) [CPD-14, 2-((5-(2-(4-(6-((6-Acetyl-8-cyclopentyl-5-methyl-7-oxo-7,8-dihydropyrido[2,3-d]pyrimidin-2-yl)amino)pyridin-3-yl)piperazin-1-yl)propanamido)pentyl)amino)-N-(6-(dimethylamino)pyridazin-3-yl)-6-(methylamino)nicotinamide] yielded an inhibition at 0.04 µM of 50 to 80%. This compound showed an inhibition at 0.2 µM against CDK4 of 50 to 80%. The IC50 in the test with T47D cells was 50 to 100 nM; in the test with MCF7 cells, < 50 nM; in the test with Calu-1 cells, ≤ 10 nM.
Turning to `CC(=O)c1c(C)c2cnc(Nc3ccc(N4CCN(CC(=O)NCCCCCNc5nc(C)ccc5C(=O)Nc5ccc(N(C)C)nn5)CC4)cn3)nc2n(C2CCCC2)c1=O` [CPD-16, 2-((5-(2-(4-(6-((6-Acetyl-8-cyclopentyl-5-methyl-7-oxo-7,8-dihydropyrido[2,3-d]pyrimidin-2-yl)amino)pyridin-3-yl)piperazin-1-yl)acetamido)pentyl)amino)-N-(6-(dimethylamino)pyridazin-3-yl)-6-methylnicotinamide], on CDK4, the inhibition at 0.04 µM fell in the range of 50 to 80%. The compound further yielded an inhibition at 0.2 µM at CDK4 of 50 to 80%. Further, the IC50 with T47D cells is ≤ 50 nM; with MCF7 cells, < 50 nM; with Calu-1 cells, ≤ 10 nM.
`CC(=O)c1c(C)c2cnc(Nc3ccc(N4CCN(CC(=O)NCCCCCNc5nc(NC(C)C)ccc5C(=O)Nc5ccc(N(C)C)nn5)CC4)cn3)nc2n(C2CCCC2)c1=O` [CPD-18, 2-((5-(2-(4-(6-((6-Acetyl-8-cyclopentyl-5-methyl-7-oxo-7,8-dihydropyrido[2,3-d]pyrimidin-2-yl)amino)pyridin-3-yl)piperazin-1-yl)acetamido)pentyl)amino)-N-(6-(dimethylamino)pyridazin-3-yl)-6-(isopropylamino)nicotinamide] came in with an inhibition at 0.04 µM at CDK4 of 50 to 80%. On CDK4, the inhibition at 0.2 µM lay in the range of 50 to 80%. Also, the IC50 in the test on T47D cells was ≤ 50 nM; in the test on MCF7 cells, < 50 nM; in the test on Calu-1 cells it was ≤ 10 nM.
In the case of `CNc1ccc(C(=O)Nc2ccc(N(C)C)nn2)c(NCCCCCNCCN2CCN(c3ccc(Nc4ncc5c(C)c(C(C)=O)c(=O)n(C6CCCC6)c5n4)nc3)CC2)n1` [CPD-21, 2-((5-((2-(4-(6-((6-Acetyl-8-cyclopentyl-5-methyl-7-oxo-7,8-dihydropyrido[2,3-d]pyrimidin-2-yl)amino)pyridin-3-yl)piperazin-1-yl)ethyl)amino)pentyl)amino)-N-(6-(dimethylamino)pyridazin-3-yl)-6-(methylamino)nicotinamide], the inhibition at 0.04 µM against CDK4 was in the range of 50 to 80%. For the same compound, the results for the IC50 with T47D cells, in the test with MCF7 cells and with Calu-1 cells were 50 to 100 nM, > 100 nM and 10 to 50 nM, respectively.
For the compound `CNc1ccc(C(=O)Nc2ccc(N(C)C)nn2)c(NCCCCC(C)NC(=O)CN2CCN(c3ccc(Nc4ncc5c(C)c(C(C)=O)c(=O)n(C6CCCC6)c5n4)nc3)CC2)n1` (stereo not shown) [CPD-22, 2-((5-(2-(4-(6-((6-Acetyl-8-cyclopentyl-5-methyl-7-oxo-7,8-dihydropyrido[2,3-d]pyrimidin-2-yl)amino)pyridin-3-yl)piperazin-1-yl)acetamido)hexyl)amino)-N-(6-(dimethylamino)pyridazin-3-yl)-6-(methylamino)nicotinamide], the inhibition at 0.04 µM against CDK4 is > 80%. Besides, the inhibition at 0.2 µM on CDK4 is > 80%. Also, the values for the IC50 with T47D cells, in the test on MCF7 cells and with Calu-1 cells were ≤ 50 nM, 50 to 100 nM and ≤ 10 nM, respectively.
As to `CNc1ccc(C(=O)Nc2ccc(N(C)C)nn2)c(Nc2cnn(CCNC(=O)CN3CCN(c4ccc(Nc5ncc6c(C)c(C(C)=O)c(=O)n(C7CCCC7)c6n5)nc4)CC3)c2)n1` [CPD-24, 2-((1-(2-(2-(4-(6-((6-Acetyl-8-cyclopentyl-5-methyl-7-oxo-7,8-dihydropyrido[2,3-d]pyrimidin-2-yl)amino)pyridin-3-yl)piperazin-1-yl)acetamido)ethyl)-1H-pyrazol-4-yl)amino)-N-(6-(dimethylamino)pyridazin-3-yl)-6-(methylamino)nicotinamide], the inhibition at 0.04 µM on CDK4 was in the range of 50 to 80%. Further, the inhibition at 0.2 µM against CDK4 was > 80%. Also, the IC50 in the test with T47D cells is ≥ 100 nM; in the test on MCF7 cells it was > 100 nM; in the test on Calu-1 cells, 10 to 50 nM.
Turning to `CNc1ccc(C(=O)Nc2ccc(N(C)C)nn2)c(NC2CC3(CC(CNC(=O)N4CCN(c5ccc(Nc6ncc7c(C)c(C(C)=O)c(=O)n(C8CCCC8)c7n6)nc5)CC4)C3)C2)n1` (stereo not shown) [CPD-81, 4-(6-((6-Acetyl-8-cyclopentyl-5-methyl-7-oxo-7,8-dihydropyrido[2,3-d]pyrimidin-2-yl)amino)pyridin-3-yl)-N-((6-((3-((6-(dimethylamino)pyridazin-3-yl)carbamoyl)-6-(methylamino)pyridin-2-yl)amino)spiro[3.3]heptan-2-yl)methyl)piperazine-1-carboxamide], on CDK4, the inhibition at 0.04 µM lay in the range of 30 to 50% and the inhibition at 0.2 µM lay within 30 to 50%. In addition, in the test with T47D cells, the IC50 was in the range of 50 to 100 nM. The IC50 with Calu-1 cells was 10 to 50 nM.
With `CC(=O)c1c(C)c2cnc(Nc3ccc(N4CCN(CC(=O)NCCCCCNc5nc(NC(C)(C)C)ccc5C(=O)Nc5ccc(N(C)C)nn5)CC4)cn3)nc2n(C2CCCC2)c1=O` [CPD-85, 2-((5-(2-(4-(6-((6-Acetyl-8-cyclopentyl-5-methyl-7-oxo-7,8-dihydropyrido[2,3-d]pyrimidin-2-yl)amino)pyridin-3-yl)piperazin-1-yl)acetamido)pentyl)amino)-6-(tert-butylamino)-N-(6-(dimethylamino)pyridazin-3-yl)nicotinamide], on CDK4, the inhibition at 0.04 µM is < 30% and the inhibition at 0.2 µM is 50 to 80%. Moreover, the IC50 with T47D cells lay within 50 to 100 nM. For the same compound, the IC50 with Calu-1 cells was ≤ 10 nM.
At CDK4, `CC(=O)c1c(C)c2cnc(Nc3ccc(N4CCN(CC(=O)NC5CC6(C5)CC(Nc5nc(NC(C)C)ccc5C(=O)Nc5cccc(C7CC7)n5)C6)CC4)cn3)nc2n(C2CCCC2)c1=O` (stereo not shown) [CPD-139, 2-((6-(2-(4-(6-((6-Acetyl-8-cyclopentyl-5-methyl-7-oxo-7,8-dihydropyrido[2,3-d]pyrimidin-2-yl)amino)pyridin-3-yl)piperazin-1-yl)acetamido)spiro[3.3]heptan-2-yl)amino)-N-(6-cyclopropylpyridin-2-yl)-6-(isopropylamino)nicotinamide] showed an inhibition at 0.04 µM of 50 to 80% and an inhibition at 0.2 µM of 50 to 80%. Further, in the test on T47D cells, the IC50 was ≤ 50 nM. Besides, the concentration for half-maximal inhibition (IC50) in the test with Calu-1 cells was ≤ 10 nM.

A word on the inhibition: it is the percentage by which the read-out fell short of the control. Low values mean a response near the control, high ones a response far below the control. Broadly, the IC50 is the concentration at which inhibition is half-maximal.
